Measured values taken from ChEMBL document CHEMBL1156829 (Proc Natl Acad Sci U S A, 2008).

Assays:
[1] = NOVARTIS: Cytotoxicity against human hepatocellular carcinoma cell line (Huh7); format: toxicity, cell-based, Huh-7; settings: Huh7 cells (hepatocellular carcinoma cell line)
[2] = system: Plasmodium falciparum; assay: NOVARTIS: Inhibition of Plasmodium falciparum 3D7 (drug-susceptible) proliferation in erythrocyte-based infection assay; format: functional, organism-based; settings: Plasmodium falciparum, 3D7
[3] = system: Plasmodium falciparum; assay: NOVARTIS: Inhibition of Plasmodium falciparum W2 (drug-resistant) proliferation in erythrocyte-based infection assay; format: functional, organism-based; settings: Plasmodium falciparum, W2; read-out: EC50

SMILES: CCn1c(CSc2nc(C)cc(C)n2)nnc1SCC(N)=O
- CC50 [1]: > 10000 nM
- EC50 [2]: > 1250 nM
- EC50 [3]: 26.7 nM

SMILES: CCC(CC)CN1CCC(O)(c2ccc3oc(C(=O)Nc4ccc5c(c4)OCO5)cc3c2)CC1
- CC50 [1]: > 100000 nM
- EC50 [2]: 246 nM
- EC50 [3]: 268 nM

SMILES: C=CCc1cccc(C=NNc2nc3ccccc3[nH]2)c1O
- CC50 [1]: > 100000 nM
- EC50 [2]: 657 nM
- EC50 [3]: 928 nM

SMILES: CCNC(=S)NC1CC2CCCC(C1)N2CCc1ccccc1 (stereo unspecified)
- CC50 [1]: > 100000 nM
- EC50 [2]: 1590 nM
- EC50 [3]: 1390 nM

SMILES: CCC1CCCCN1CCCNC(=O)c1cn(CC)c(=O)c2cc(OC)c(OC)cc12 (stereo unspecified)
- CC50 [1]: > 100000 nM
- EC50 [2]: 449 nM
- EC50 [3]: 505 nM

SMILES: CN1CCN(c2c3c(c(C#N)c4nc5ccccc5n24)CCC3)CC1
- CC50 [1]: > 100000 nM
- EC50 [2]: 1180 nM
- EC50 [3]: > 6490 nM

SMILES: CCCC(=O)N1CCN(C(=O)c2nc(-c3ccccc3)nc(C(C)C)c2C(=O)OC)CC1C (stereo unspecified)
- CC50 [1]: > 8440 nM
- EC50 [2]: 880 nM
- EC50 [3]: 475 nM

SMILES: O=C(NCc1ccc(Cl)cc1)C(=O)NCc1ccccn1
- CC50 [1]: 8240 nM
- EC50 [2]: 1320 nM
- EC50 [3]: 105 nM

SMILES: COc1ccc(OC)c(/C=C/C(=O)Nc2ccc3nc(N4CCN(C)CC4)cc(C)c3c2)c1
- CC50 [1]: > 10000 nM
- EC50 [2]: > 1250 nM
- EC50 [3]: > 873 nM

SMILES: O=C1c2ccccc2-[n+]2ccc3c([nH]c4ccccc43)c21 [FASCAPLYSIN CHLORIDE]
- CC50 [1]: 589 nM
- EC50 [2]: 74.9 nM
- EC50 [3]: 46.4 nM

SMILES: COc1cc2cc(C(=O)Nc3ccccc3)c(N)nc2cc1OC
- CC50 [1]: > 100000 nM
- EC50 [2]: 409 nM
- EC50 [3]: 964 nM

SMILES: N#CC(=Cn1cc(Cc2ccc(Cl)cc2Cl)c2ccccc21)c1nn(CCO)c(N)c1C#N
- CC50 [1]: 75000 nM
- EC50 [2]: 629 nM
- EC50 [3]: 909 nM

SMILES: O=C(NCCc1ccccc1)c1cnc(NCCC2=CCCCC2)nc1NCC1CCCCC1
- CC50 [1]: > 10000 nM
- EC50 [2]: 436 nM
- EC50 [3]: 395 nM

SMILES: CC(C)CN1CCN(c2nc(C#N)c3c(c2C(=S)NC2CCCCC2)CC(C)(C)OC3)CC1
- CC50 [1]: > 10000 nM
- EC50 [2]: 370 nM
- EC50 [3]: 319 nM

SMILES: O=C(NCc1cccs1)c1ccc(OC2CCN(CC3CCCCC3)CC2)c(Cl)c1
- CC50 [1]: > 10000 nM
- EC50 [2]: 719 nM
- EC50 [3]: 44.6 nM

SMILES: CCN(CC)C(=O)c1cn(C2CCN(C(=O)CCc3cccc(OC)c3)CC2)nn1
- CC50 [1]: > 10000 nM
- EC50 [2]: > 1250 nM
- EC50 [3]: 26.7 nM

SMILES: CCOC(=O)c1nc2nc(C)cc(O)n2n1
- CC50 [1]: > 10000 nM
- EC50 [2]: > 739 nM
- EC50 [3]: > 940 nM

SMILES: CC(C)(C)c1ncccc1OC(=O)C12CC3CC(CC(C3)C1)C2
- CC50 [1]: > 10000 nM
- EC50 [2]: 349 nM
- EC50 [3]: > 1470 nM

SMILES: C=CCSc1nnc2c(n1)[nH]c1ccc(OCC)cc12
- CC50 [1]: > 100000 nM
- EC50 [2]: 5620 nM
- EC50 [3]: 549 nM

SMILES: Oc1c2c(nc3cc(-c4ccc(-c5ccccc5)cc4)nn13)CCCC2
- CC50 [1]: > 73800 nM
- EC50 [2]: 1140 nM
- EC50 [3]: 1020 nM

SMILES: COc1ccc(-n2c(SCC(=O)Nc3cc(Cl)ccc3OC)nnc2-c2ccccc2)cc1
- CC50 [1]: > 11400 nM
- EC50 [2]: > 1100 nM
- EC50 [3]: < 1.06 nM

SMILES: Cc1oc(C)c2c(=O)cc(-c3cccs3)cc(O)c12
- CC50 [1]: > 100000 nM
- EC50 [2]: 1220 nM
- EC50 [3]: 758 nM

SMILES: CCCN(CC(=O)Nc1cc(C(C)(C)C)nn1-c1cccc(C)c1)C(=O)c1cccc([N+](=O)[O-])c1
- CC50 [1]: > 10000 nM
- EC50 [2]: > 1630 nM
- EC50 [3]: 1010 nM

SMILES: c1cc2c(cc1Nc1c3c(nc4nncn14)CCC3)OCCO2
- CC50 [1]: > 100000 nM
- EC50 [2]: 2950 nM
- EC50 [3]: 1480 nM

SMILES: CCOc1ccc(S(=O)(=O)c2cn(Cc3ccccc3C)c3ccc(OC)cc3c2=O)cc1
- CC50 [1]: > 100000 nM
- EC50 [2]: 6270 nM
- EC50 [3]: 3860 nM

SMILES: CCCOC(=O)C1=C(C)NC2=C(C(=O)CC(c3ccc(OC)c(OC)c3)C2)C1c1cccc(C)c1 (stereo unspecified)
- CC50 [1]: 32000 nM
- EC50 [2]: 91.3 nM
- EC50 [3]: 35.9 nM

SMILES: COc1ccccc1-n1c(C(C)N2CCN(C(=O)c3cc([N+](=O)[O-])cc([N+](=O)[O-])c3)C(C)C2)nc2ccccc2c1=O (stereo unspecified)
- CC50 [1]: > 10000 nM
- EC50 [2]: > 603 nM
- EC50 [3]: 79.6 nM
